What was measured:
Fms = Fms (Homo sapiens, UniProt P07333); assay: Kinase activity assay, Fms
C-Raf = C-Raf (Homo sapiens, UniProt P04049); assay: Kinase activity assay, C-Raf
Kit = Kit (Homo sapiens, UniProt P10721); assay: Kinase activity assay, Kit
Kdr = Kdr (Homo sapiens, UniProt P35968); assay: Kinase activity assay, Kdr
B-Raf V600E = B-Raf V600E (Homo sapiens, UniProt P15056, V600E); assay: Kinase activity assay, B-Raf V600E; format: biochemical; details: read-out: activity toward kinase B-Raf V600E, IC50
B-Raf = B-Raf (Homo sapiens, UniProt P15056); assay: Kinase activity assay, B-Raf; format: biochemical; details: read-out: activity toward kinase B-Raf, IC50
Src = Src (Homo sapiens, UniProt P12931); assay: Kinase activity assay, Src

Measured: IC50

Src, sequence (P12931 whole entry): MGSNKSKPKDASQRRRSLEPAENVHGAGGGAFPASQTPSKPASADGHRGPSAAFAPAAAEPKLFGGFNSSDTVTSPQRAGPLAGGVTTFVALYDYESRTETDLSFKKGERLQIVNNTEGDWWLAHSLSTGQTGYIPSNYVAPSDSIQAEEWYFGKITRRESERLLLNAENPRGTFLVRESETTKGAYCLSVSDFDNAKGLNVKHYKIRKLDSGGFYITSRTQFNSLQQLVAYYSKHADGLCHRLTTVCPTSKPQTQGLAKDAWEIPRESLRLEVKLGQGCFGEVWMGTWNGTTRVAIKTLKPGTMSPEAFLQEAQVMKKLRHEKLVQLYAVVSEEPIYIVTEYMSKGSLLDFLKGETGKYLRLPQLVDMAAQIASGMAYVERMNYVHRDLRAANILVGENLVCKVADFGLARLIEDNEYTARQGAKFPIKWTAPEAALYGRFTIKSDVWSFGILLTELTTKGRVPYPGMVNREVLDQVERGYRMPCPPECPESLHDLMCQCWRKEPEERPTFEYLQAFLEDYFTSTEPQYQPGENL
Fms, sequence (P07333 20-972): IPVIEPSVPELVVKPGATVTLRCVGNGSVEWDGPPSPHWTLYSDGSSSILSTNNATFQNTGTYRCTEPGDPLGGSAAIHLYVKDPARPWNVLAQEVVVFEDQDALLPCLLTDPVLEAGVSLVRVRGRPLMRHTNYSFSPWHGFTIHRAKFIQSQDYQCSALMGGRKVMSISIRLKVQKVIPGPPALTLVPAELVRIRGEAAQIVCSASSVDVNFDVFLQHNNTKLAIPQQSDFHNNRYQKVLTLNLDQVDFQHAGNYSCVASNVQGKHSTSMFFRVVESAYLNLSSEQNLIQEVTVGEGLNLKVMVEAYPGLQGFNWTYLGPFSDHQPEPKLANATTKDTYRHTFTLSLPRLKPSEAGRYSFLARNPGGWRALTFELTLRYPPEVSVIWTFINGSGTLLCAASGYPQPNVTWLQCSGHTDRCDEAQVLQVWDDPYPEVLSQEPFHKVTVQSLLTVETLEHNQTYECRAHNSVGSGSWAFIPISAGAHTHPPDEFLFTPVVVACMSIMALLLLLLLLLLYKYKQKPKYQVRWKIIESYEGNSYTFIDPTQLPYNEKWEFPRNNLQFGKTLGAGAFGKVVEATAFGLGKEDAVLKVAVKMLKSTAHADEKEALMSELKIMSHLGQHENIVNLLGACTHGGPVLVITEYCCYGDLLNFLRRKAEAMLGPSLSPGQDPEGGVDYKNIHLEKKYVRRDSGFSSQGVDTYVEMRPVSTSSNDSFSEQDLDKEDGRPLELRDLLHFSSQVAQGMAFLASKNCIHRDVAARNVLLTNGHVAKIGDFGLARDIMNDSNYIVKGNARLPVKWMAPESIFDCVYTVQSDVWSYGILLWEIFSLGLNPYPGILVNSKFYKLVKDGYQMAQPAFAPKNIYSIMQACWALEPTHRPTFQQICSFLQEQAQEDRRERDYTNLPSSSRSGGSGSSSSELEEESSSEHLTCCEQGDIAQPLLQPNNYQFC
B-Raf V600E, sequence (P15056 whole entry V600E): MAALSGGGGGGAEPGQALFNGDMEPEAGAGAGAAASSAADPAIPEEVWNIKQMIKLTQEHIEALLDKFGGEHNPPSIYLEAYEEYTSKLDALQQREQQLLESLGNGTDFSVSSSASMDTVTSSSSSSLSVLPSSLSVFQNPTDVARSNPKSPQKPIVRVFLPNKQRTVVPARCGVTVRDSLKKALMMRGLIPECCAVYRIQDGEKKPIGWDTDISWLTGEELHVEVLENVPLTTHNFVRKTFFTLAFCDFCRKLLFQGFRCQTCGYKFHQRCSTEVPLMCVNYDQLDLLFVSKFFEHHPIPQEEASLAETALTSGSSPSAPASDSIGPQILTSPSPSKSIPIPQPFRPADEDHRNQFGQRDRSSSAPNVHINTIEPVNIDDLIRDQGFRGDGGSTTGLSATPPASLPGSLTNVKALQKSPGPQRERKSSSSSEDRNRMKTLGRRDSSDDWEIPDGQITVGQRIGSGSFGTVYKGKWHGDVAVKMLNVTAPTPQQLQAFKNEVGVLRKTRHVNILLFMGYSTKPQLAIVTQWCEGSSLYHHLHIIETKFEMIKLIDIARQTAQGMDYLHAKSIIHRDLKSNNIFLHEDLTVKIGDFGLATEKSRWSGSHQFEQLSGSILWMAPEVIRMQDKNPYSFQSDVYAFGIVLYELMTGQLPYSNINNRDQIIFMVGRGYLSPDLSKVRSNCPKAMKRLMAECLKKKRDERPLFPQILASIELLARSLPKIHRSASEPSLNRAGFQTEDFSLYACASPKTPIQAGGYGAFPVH
B-Raf, sequence (P15056 whole entry): as the sequence (P15056 whole entry V600E) above, with E600V counted along it
Kdr, sequence (P35968 20-1356): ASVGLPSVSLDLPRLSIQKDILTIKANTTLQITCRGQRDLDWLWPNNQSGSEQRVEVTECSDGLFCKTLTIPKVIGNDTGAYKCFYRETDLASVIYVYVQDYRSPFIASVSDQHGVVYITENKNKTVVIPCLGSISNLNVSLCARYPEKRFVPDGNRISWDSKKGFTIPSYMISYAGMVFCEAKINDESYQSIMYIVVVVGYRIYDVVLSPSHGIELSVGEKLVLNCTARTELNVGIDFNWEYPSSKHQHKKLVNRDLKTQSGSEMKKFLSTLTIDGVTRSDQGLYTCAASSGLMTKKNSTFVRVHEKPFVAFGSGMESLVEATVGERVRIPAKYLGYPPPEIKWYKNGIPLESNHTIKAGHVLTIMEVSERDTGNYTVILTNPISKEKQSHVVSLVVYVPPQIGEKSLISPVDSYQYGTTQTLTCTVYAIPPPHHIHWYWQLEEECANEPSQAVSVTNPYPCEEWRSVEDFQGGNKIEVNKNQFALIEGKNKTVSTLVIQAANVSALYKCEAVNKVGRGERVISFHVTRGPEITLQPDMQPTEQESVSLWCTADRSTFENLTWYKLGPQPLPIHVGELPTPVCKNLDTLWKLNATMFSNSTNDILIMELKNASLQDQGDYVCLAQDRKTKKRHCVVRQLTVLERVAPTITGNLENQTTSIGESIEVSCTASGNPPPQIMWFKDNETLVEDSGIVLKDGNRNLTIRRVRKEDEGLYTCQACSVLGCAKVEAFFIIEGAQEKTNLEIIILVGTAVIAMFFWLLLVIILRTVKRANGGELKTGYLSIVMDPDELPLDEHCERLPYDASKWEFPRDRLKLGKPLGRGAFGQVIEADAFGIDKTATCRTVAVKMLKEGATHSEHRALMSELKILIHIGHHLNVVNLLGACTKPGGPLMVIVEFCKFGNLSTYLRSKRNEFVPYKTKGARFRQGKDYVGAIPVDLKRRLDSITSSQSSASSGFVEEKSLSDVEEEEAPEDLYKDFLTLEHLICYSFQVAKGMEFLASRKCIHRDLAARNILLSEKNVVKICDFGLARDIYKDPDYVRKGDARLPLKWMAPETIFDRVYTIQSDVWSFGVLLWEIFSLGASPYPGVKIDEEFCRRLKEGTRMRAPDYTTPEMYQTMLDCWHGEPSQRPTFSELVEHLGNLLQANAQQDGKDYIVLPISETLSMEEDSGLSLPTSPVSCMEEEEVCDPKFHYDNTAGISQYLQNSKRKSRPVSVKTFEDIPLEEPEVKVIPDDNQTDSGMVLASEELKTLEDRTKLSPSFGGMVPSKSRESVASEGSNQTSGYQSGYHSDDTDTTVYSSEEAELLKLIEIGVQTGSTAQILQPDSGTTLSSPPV
Kit, sequence (P10721 26-976): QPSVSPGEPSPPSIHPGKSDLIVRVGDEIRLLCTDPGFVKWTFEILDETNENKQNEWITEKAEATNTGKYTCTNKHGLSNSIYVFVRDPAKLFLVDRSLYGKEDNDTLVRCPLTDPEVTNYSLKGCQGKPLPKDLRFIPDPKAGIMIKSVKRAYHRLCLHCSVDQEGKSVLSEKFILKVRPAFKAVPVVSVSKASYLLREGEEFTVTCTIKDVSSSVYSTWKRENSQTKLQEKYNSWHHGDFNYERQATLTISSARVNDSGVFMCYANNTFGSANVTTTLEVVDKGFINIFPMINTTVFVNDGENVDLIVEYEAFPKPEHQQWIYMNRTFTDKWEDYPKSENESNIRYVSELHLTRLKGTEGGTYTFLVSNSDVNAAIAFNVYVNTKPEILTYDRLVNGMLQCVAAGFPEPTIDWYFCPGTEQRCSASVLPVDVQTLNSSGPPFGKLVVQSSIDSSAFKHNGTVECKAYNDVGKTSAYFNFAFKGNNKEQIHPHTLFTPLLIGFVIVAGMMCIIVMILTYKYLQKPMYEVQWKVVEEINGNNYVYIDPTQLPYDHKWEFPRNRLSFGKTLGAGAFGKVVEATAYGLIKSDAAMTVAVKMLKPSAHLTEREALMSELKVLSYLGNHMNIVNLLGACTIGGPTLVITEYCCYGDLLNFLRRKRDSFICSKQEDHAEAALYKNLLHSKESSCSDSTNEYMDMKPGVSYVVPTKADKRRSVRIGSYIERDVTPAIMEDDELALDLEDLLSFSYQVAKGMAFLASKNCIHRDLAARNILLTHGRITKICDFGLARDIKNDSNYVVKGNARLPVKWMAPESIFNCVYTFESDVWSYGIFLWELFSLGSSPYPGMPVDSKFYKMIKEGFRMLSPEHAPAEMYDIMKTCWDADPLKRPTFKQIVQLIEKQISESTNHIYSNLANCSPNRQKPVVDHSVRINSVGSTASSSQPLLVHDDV

Cc1oncc1S(=O)(=O)Nc1cccc(C(=O)c2c[nH]c3ncc(C#N)cc23)c1F [P-2088, 5-Methyl-isoxazole-4-sulfonic acid [3-(5-cyano-1H-pyrrolo[2,3-b]pyridine-3-carbonyl)-2-fluoro-phenyl]-amide]
not listed: B-Raf | Src
≤ 10 µM: all other assays above

Cn1cc(-c2cnc3[nH]cc(C(=O)c4cc(NS(=O)(=O)c5ccc(C(F)(F)F)cc5)ccc4F)c3c2)cn1 [P-2104, N-{4-Fluoro-3-[5-(1-methyl-1H-pyrazol-4-yl)-1H-pyrrolo[2,3-b]pyridine-3-carbonyl]-phenyl}-4-trifluoromethyl-benzenesulfonamide]
not listed: C-Raf
≤ 10 µM: all other assays above

O=C(c1cc(NS(=O)(=O)c2ccc(Cl)cc2)ccc1F)c1c[nH]c2ncc(Cl)cc12 [P-2106, 4-Chloro-N-[3-(5-chloro-1H-pyrrolo[2,3-b]pyridine-3-carbonyl)-4-fluoro-phenyl]-benzenesulfonamide]
≤ 10 µM: Fms | Kit | B-Raf | Kdr

O=C(c1cc(NS(=O)(=O)c2cccc(C(F)(F)F)c2)ccc1F)c1c[nH]c2ncc(Cl)cc12 [P-2108, N-[3-(5-Chloro-1H-pyrrolo[2,3-b]pyridine-3-carbonyl)-4-fluoro-phenyl]-3-trifluoromethyl-benzenesulfonamide]
not listed: C-Raf | Src
≤ 10 µM: all other assays above

O=C(c1cc(NS(=O)(=O)c2cccc(OC(F)(F)F)c2)ccc1F)c1c[nH]c2ncc(Cl)cc12 [P-2110, N-[3-(5-Chloro-1H-pyrrolo[2,3-b]pyridine-3-carbonyl)-4-fluoro-phenyl]-3-trifluoromethoxy-benzenesulfonamide]
not listed: C-Raf | Src
≤ 10 µM: all other assays above

O=C(c1cc(NS(=O)(=O)c2ccc(C(F)(F)F)cc2)ccc1F)c1c[nH]c2ncc(Cl)cc12 [P-2112, N-[3-(5-Chloro-1H-pyrrolo[2,3-b]pyridine-3-carbonyl)-4-fluoro-phenyl]-4-trifluoromethyl-benzenesulfonamide]
≤ 10 µM: Fms | Kit | B-Raf

O=C(c1cccc(NS(=O)(=O)c2ccc(OC(F)(F)F)cc2)c1)c1c[nH]c2ncc(Cl)cc12 [P-2123, N-[3-(5-Chloro-1H-pyrrolo[2,3-b]pyridine-3-carbonyl)-phenyl]-4-trifluoromethoxy-benzenesulfonamide]
≤ 10 µM: Fms | Kit | B-Raf

O=C(c1cccc(NS(=O)(=O)c2cccc(F)c2)c1)c1c[nH]c2ncc(Cl)cc12 [P-2127, N-[3-(5-Chloro-1H-pyrrolo[2,3-b]pyridine-3-carbonyl)-phenyl]-3-fluoro-benzenesulfonamide]
not listed: C-Raf | Src
≤ 10 µM: all other assays above

O=C(c1cccc(NS(=O)(=O)c2ccc(Cl)cc2)c1)c1c[nH]c2ncc(Cl)cc12 [P-2128, 4-Chloro-N-[3-(5-chloro-1H-pyrrolo[2,3-b]pyridine-3-carbonyl)-phenyl]-benzenesulfonamide]
≤ 10 µM: Fms | Kit | B-Raf | Kdr

CCCS(=O)(=O)Nc1ccc(F)c(C(=O)c2c[nH]c3ncc(-c4ncc(C)n4C)cc23)c1F [P-2152, Propane-1-sulfonic acid {3-[5-(1,5-dimethyl-1H-imidazol-2-yl)-1H-pyrrolo[2,3-b]pyridine-3-carbonyl]-2,4-difluoro-phenyl}-amide]
not listed: C-Raf | Src
≤ 10 µM: all other assays above

CCCS(=O)(=O)Nc1ccc(F)c(C(=O)c2c[nH]c3ncc(-c4nccn4C)cc23)c1F [P-2153, Propane-1-sulfonic acid {2,4-difluoro-3-[5-(1-methyl-1H-imidazol-2-yl)-1H-pyrrolo[2,3-b]pyridine-3-carbonyl]-phenyl}-amide]
not listed: C-Raf
≤ 10 µM: all other assays above

CCCS(=O)(=O)Nc1ccc(F)c(C(=O)c2c[nH]c3ncc(-c4cccnc4F)cc23)c1F [P-2164, Propane-1-sulfonic acid {2,4-difluoro-3-[5-(2-fluoro-pyridin-3-yl)-1H-pyrrolo[2,3-b]pyridine-3-carbonyl]-phenyl}-amide]
not listed: C-Raf | B-Raf
≤ 10 µM: all other assays above

CCCS(=O)(=O)Nc1ccc(F)c(C(=O)c2c[nH]c3ncc(-c4cccc(NS(C)(=O)=O)c4)cc23)c1F [P-2169, Propane-1-sulfonic acid {2,4-difluoro-3-[5-(3-methanesulfonylamino-phenyl)-1H-pyrrolo[2,3-b]pyridine-3-carbonyl]-phenyl}-amide]
not listed: C-Raf | B-Raf
≤ 10 µM: all other assays above

CCCS(=O)(=O)Nc1ccc(F)c(C(=O)c2c[nH]c3ncc(-c4ccc(C)nc4F)cc23)c1F [P-2172, Propane-1-sulfonic acid {2,4-difluoro-3-[5-(2-fluoro-6-methyl-pyridin-3-yl)-1H-pyrrolo[2,3-b]pyridine-3-carbonyl]-phenyl}-amide]
not listed: C-Raf
≤ 10 µM: all other assays above

CCCS(=O)(=O)Nc1ccc(F)c(C(=O)c2c[nH]c3ncc(-c4ccnn4C)cc23)c1F [P-2175, Propane-1-sulfonic acid {2,4-difluoro-3-[5-(2-methyl-2H-pyrazol-3-yl)-1H-pyrrolo[2,3-b]pyridine-3-carbonyl]-phenyl}-amide]
not listed: C-Raf
≤ 10 µM: all other assays above

CCCS(=O)(=O)Nc1ccc(F)c(C(=O)c2c[nH]c3ncc(-c4ccc(C(=O)NC)nc4)cc23)c1F [P-2180, 5-{3-[2,6-Difluoro-3-(propane-1-sulfonylamino)-benzoyl]-1H-pyrrolo[2,3-b]pyridin-5-yl}-pyridine-2-carboxylic acid methylamide]
not listed: C-Raf
≤ 10 µM: all other assays above

CCCS(=O)(=O)Nc1ccc(F)c(C(=O)c2c[nH]c3ncc(-c4ccc(S(C)(=O)=O)cc4)cc23)c1F [P-2183, Propane-1-sulfonic acid {2,4-difluoro-3-[5-(4-methanesulfonyl-phenyl)-1H-pyrrolo[2,3-b]pyridine-3-carbonyl]-phenyl}-amide]
not listed: C-Raf | Src
≤ 10 µM: all other assays above

CC(C)CS(=O)(=O)Nc1ccc(F)c(C(=O)c2c[nH]c3ncc(Br)cc23)c1F [P-2296, 2-Methyl-propane-1-sulfonic acid [3-(5-bromo-1H-pyrrolo[2,3-b]pyridine-3-carbonyl)-2,4-difluoro-phenyl]-amide]
not listed: C-Raf | B-Raf
≤ 10 µM: all other assays above

CCCS(=O)(=O)Nc1cccc(C(=O)c2c[nH]c3ncc(C(=O)OCC)cc23)c1F [P-2406, 3-[2-Fluoro-3-(propane-1-sulfonylamino)-benzoyl]-1H-pyrrolo[2,3-b]pyridine-5-carboxylic acid ethyl ester]
not listed: C-Raf | Src
≤ 10 µM: all other assays above

CCCCS(=O)(=O)Nc1cccc(C(=O)c2c[nH]c3ncc(Cl)cc23)c1 [P-2450, Butane-1-sulfonic acid [3-(5-chloro-1H-pyrrolo[2,3-b]pyridine-3-carbonyl)-phenyl]-amide]
≤ 10 µM: Fms | Kit | Kdr | B-Raf V600E

— patent publication US20120122860A1, “SOLID FORMS OF SULFONAMIDES AND AMINO ACIDS” (Plexxikon, Inc., priority 2009, published 2012)
